For one compound, PTPase activity, Kcat and Vmax results are on record in paper PMC3172300, “Modulation of Catalytic Activity in Multi-Domain Protein Tyrosine Phosphatases” (PLoS ONE, 2011).

Experiment [1] has as its system PTP99A D1 active site cysteine to serine mutant. The experiment in a line: Phosphatase assay using pNPP, PTP99A D1 active site Cys to Ser mutant. It is filed as biochemical, Drosophila melanogaster. As to conditions: active site cysteine to serine in D1. The text has this:
Cosmids containing the genes encoding RPTPs DLAR and PTP99A were a kind gift from Prof. Kai Zinn (Caltech). The PTP domains of PTP99A and DLAR were PCR amplified and ligated between the NheI and XhoI restriction sites of the bacterial expression vectors pET-15b and pET-22b. The active site mutants (with the nucleophilic cysteines in the PTP domains of DLAR and PTP99A mutated to serines) were obtained by using a single primer approach. An XbaI site was incorporated in the primers to aid screening of mutants. All clones were confirmed by sequencing (Macrogen Inc.). The details of the expression constructs are compiled in Table S1 and Figure 1a.
Phosphatase activity of the recombinant PTP domains was determined by using para-Nitrophenylphosphate (pNPP), a small molecule generic substrate, as well as phosphotyrosine containing peptides. The pNPP assay was performed as reported previously, with a modification in the buffer composition (25 mM Citrate, Glycine and HEPES (CGH), pH 6.5, 100 mM NaCl and 2 mM DTT). Phosphatase activity with the phosphotyrosine peptides was ascertained by the malachite green reaction as described for PTPs previously. […] The reaction was stopped by the addition of the Biomol Green reagent (Enzo Life Sciences) and the colour developed after 20 min was quantified at 650 nm. […]

A further experiment has as its target T1, DLAR D2 (Drosophila melanogaster, UniProt P16621).
T1 construct: DLAR 1728-2029; His tag (pET-15b or pET-22b); made in house; host or cells: E. coli BL21(DE3)
T1 sequence (P16621 1728-2029): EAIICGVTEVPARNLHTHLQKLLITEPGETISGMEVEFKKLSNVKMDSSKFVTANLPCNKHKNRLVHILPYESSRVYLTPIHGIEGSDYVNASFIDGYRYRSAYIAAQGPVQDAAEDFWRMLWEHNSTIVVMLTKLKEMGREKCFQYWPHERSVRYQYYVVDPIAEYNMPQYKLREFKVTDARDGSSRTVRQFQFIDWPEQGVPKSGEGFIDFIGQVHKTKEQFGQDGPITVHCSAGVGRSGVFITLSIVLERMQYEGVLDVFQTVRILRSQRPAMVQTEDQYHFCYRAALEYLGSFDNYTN
The experiment in a line: Phosphatase assay using pNPP, DLAR D2. It is filed as biochemical. To be noted: CGH buffer pH 6.5. As for the experimental part:
(§1) Phosphatase activity of the recombinant PTP domains was determined by using para-Nitrophenylphosphate (pNPP), a small molecule generic substrate, as well as phosphotyrosine containing peptides. The pNPP assay was performed as reported previously, with a modification in the buffer composition (25 mM Citrate, Glycine and HEPES (CGH), pH 6.5, 100 mM NaCl and 2 mM DTT). Phosphatase activity with the phosphotyrosine peptides was ascertained by the malachite green reaction as described for PTPs previously. Briefly, the reaction mixture comprised of 0.01 µM protein incubated with increasing concentrations of different peptides in 25 mM citrate buffer pH 6.0, 100 mM NaCl and 2 mM DTT for 15 min at 25°C. The reaction was stopped by the addition of the Biomol Green reagent (Enzo Life Sciences) and the colour developed after 20 min was quantified at 650 nm. For all the assays, kinetic constants for the steady state catalysis were obtained by fitting the reaction curves to the Michaelis-Menten equation using the nonlinear regression module of Sigma plot software (Systat Software, Inc.).

The target of a further experiment is T2, PTP99A D1 (Drosophila melanogaster, UniProt P35832).
T2 sequence (P35832 450-756): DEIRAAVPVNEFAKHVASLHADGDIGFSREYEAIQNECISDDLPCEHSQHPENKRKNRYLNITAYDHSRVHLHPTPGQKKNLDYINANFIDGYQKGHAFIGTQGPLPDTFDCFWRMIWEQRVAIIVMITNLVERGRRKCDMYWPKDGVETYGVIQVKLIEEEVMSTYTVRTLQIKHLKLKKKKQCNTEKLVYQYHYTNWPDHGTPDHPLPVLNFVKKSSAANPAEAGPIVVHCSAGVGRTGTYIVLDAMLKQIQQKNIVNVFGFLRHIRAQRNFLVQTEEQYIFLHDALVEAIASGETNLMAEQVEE
The experiment in a line: Phosphatase assay using pNPP, PTP99A D1. Also on record: PTP99A 450-756; His tag (pET-15b or pET-22b); made in house; host or cells: E. coli BL21(DE3). It is filed as biochemical. As to conditions: CGH buffer pH 6.5, 100 mM NaCl, 2 mM DTT. As for the experimental part:
as §1
The tandem PTP domains of PTP99A (PTP99A D1D2) and DLAR (DLAR D1D2) , the individual PTP domains (D1 and D2) as well as the active site mutants were expressed in E. coli and were purified using the protocols described earlier (Figure 1a, Figure S1a, b & c). […]

Each structure is given as a SMILES string. “And” between values parts separate entries of the source, which are not always exact repeats. Equal entries are not always repeated.

As for `O=[N+]([O-])c1ccc(OP(=O)(O)O)cc1` [pNPP, para-Nitrophenylphosphate], the PTPase activity result is “inactive enzyme” in experiment [1] and “no detectable activity” on DLAR D2. The Kcat at PTP99A D1 stood at 0.14 ± 0.01 s⁻¹. Also, at PTP99A D1 (Michaelis-Menten fit), the Vmax is 0.22 µmol/min/mg and 0.22 ± 0.01 µmol/min/mg.
